# Test results published in ChEMBL document CHEMBL3612051, “Carbonic anhydrase inhibitors: Design, synthesis and structural characterization of new heteroaryl-N-carbonylbenzenesulfonamides targeting druggable human carbonic anhydrase isoforms” (Eur J Med Chem, 2015).
# pIC50, pKi: −log10 of the molar value.
# Experiments:
# Carbonic anhydrase 9 = Carbonic anhydrase 9 (Homo sapiens, UniProt Q16790); assay: Inhibition of human recombinant full length carbonic anhydrase 9 preincubated for 15 mins by stopped-flow CO2 hydration assay
# Carbonic anhydrase 7 = Carbonic anhydrase 7 (Homo sapiens, UniProt P43166); assay: Inhibition of human recombinant full length carbonic anhydrase 7 preincubated for 15 mins by stopped-flow CO2 hydration assay
# Carbonic anhydrase 7, sequence (P43166 whole entry): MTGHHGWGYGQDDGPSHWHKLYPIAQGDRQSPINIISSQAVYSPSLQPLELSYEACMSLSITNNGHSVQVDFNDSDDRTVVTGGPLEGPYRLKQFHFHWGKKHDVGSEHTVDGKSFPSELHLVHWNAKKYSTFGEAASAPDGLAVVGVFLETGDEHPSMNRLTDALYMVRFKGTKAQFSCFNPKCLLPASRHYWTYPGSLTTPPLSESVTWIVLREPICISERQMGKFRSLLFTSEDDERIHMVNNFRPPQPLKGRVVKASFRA
pKi (Carbonic anhydrase 9),pIC50 (Carbonic anhydrase 7),Structure (SMILES)
7.57,–,COc1ccc2c(c1)CCN(C(=O)c1ccc(S(N)(=O)=O)cc1)C2
7.55,–,NS(=O)(=O)c1ccc(C(=O)N2CCc3cc(O)ccc3C2)cc1
8.12,–,NS(=O)(=O)c1ccc(C(=O)N2CCc3ccccc3C2)cc1
8.19,< 4.30,COc1ccc2c(c1)CCCN2C(=O)c1ccc(S(N)(=O)=O)cc1
7.38,–,NS(=O)(=O)c1ccc(C(=O)N2CCCc3cc(O)ccc32)cc1
8.03,–,NS(=O)(=O)c1ccc(C(=O)N2CCCc3ccccc32)cc1

Structure (SMILES),pKi (Carbonic anhydrase 9),pIC50 (Carbonic anhydrase 7)
COc1cc2c(cc1OC)CN(C(=O)c1ccc(S(N)(=O)=O)cc1)CC2,8.21,–
NS(=O)(=O)c1ccc(C(=O)N2CCc3cc(O)c(O)cc3C2)cc1,8.30,–
